Values quoted from earlier work in article PMC5278571, “Optimal doses of caspofungin during continuous venovenous hemodiafiltration in critically ill patients” (Critical Care, 2017).

How the values were obtained:
Conditions in all cases: murine model of disseminated candidiasis; cited from earlier work
[1] = test system: C. parapsilosis
Description: (§1) Taking into account a MIC of 0.1 mg/L [4], and using the target pharmacokinetics/pharmacodynamics (PK/PD) described for micafungin, we would have reac ...

[2] = test system: Candida albicans
Description: as §1

[3] = test system: Candida glabrata
Description: as §1

Substance: micafungin
- AUC/MIC associated with 1 log kill/24 h [1]: 1185
- AUC/MIC associated with 1 log kill/24 h [2]: 865
- AUC/MIC associated with 1 log kill/24 h [3]: 450
